For eight compounds, Activity and IC50 results are on record in ChEMBL document CHEMBL1139799, “Identification of novel chemical inhibitors for ubiquitin C-terminal hydrolase-L3 by virtual screening” (Bioorg Med Chem, 2007).

Each structure is given as a SMILES string. The source made the active and inactive calls. The calls are words filed in the database; no cut-off is given here.

The target of assay [1] is T1, Ubiquitin carboxyl-terminal hydrolase isozyme L3 (Homo sapiens) (UniProt P15374).
T1 sequence (whole entry): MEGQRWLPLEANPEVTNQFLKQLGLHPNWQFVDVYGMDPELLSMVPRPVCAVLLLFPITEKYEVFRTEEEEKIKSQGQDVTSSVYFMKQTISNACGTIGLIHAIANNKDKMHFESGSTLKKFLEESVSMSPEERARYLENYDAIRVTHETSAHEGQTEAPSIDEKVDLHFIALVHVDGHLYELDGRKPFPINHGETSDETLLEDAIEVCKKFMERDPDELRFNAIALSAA
Put plainly: Inhibition of human UCH-L3 hydrolysis activity at 387 uM.

Assay [2] has as its target T1, Ubiquitin carboxyl-terminal hydrolase isozyme L3 (Homo sapiens). Put plainly: Inhibition of human UCH-L3 hydrolysis activity at 331 uM.
The target of assay [3] is T2, Ubiquitin carboxyl-terminal hydrolase isozyme L3 (Homo sapiens, UniProt P15374).
T2 sequence (P15374 whole entry): T1 sequence (whole entry)
Put plainly: Inhibition of human UCH-L3 hydrolysis activity.

Assay [4] has as its target T1, Ubiquitin carboxyl-terminal hydrolase isozyme L3 (Homo sapiens). Put plainly: Inhibition of human UCH-L3 hydrolysis activity at 375 uM relative to control. More on the design: scale not given: the % may be the effect or the level left.
The target is the same in assay [5]. Put plainly: Inhibition of human UCH-L3 hydrolysis activity at 334 uM.
Assay [6] shares this target. Briefly: Inhibition of human UCH-L3 hydrolysis activity at 350 uM relative to control. More on the design: scale not given: the % may be the effect or the level left.
Assay [7] shares this target. Put plainly: Inhibition of human UCH-L3 hydrolysis activity at 386 uM.
For assay [8] the target is unchanged. Put plainly: Inhibition of human UCH-L3 hydrolysis activity at 380 uM relative to control. More on the design: scale not given: the % may be the effect or the level left.

Turning to `Nc1nc(CSc2nnc(-c3ccco3)n2-c2ccccc2)cs1`, the result in assay [1] was inactive.
Take `CCS(=O)(=O)Nc1cccc(C2=NN(C(C)=O)C(c3cccs3)C2)c1` (stereo not given): the outcome in assay [2] was inactive.
`Cc1ccc(C(=O)C2=C(O)C(=O)N(Cc3ccccc3)C2c2cccnc2)o1` (stereo not given) came in with an IC50 in assay [3] of 103 µM.
As to `COc1ccc(C2C(C(=O)c3cccs3)=C(O)C(=O)N2c2nncs2)cc1` (stereo not given), it took 154 µM to reach half-maximal inhibition in assay [3] (IC50). In assay [4], the Activity came out at 76.5%.
With `COc1ccc(N(CC(=O)NC2CC2)S(=O)(=O)c2ccc(C)cc2)cc1`, in assay [5], the result was inactive.
`Cc1ccc(C(=O)C2=C(O)C(=O)N(Cc3cccnc3)C2c2ccc(F)cc2)o1` (stereo not given): the IC50 in assay [3] is 123 µM. Also, the Activity in assay [6] is 76.8%.
As for `COc1cccc(N(CC(=O)NC2CCCC2)S(=O)(=O)c2ccccc2)c1`, the outcome in assay [7] was inactive.
In assay [8], `Cn1c(SCc2nc(-c3cccs3)no2)nnc1-c1c[nH]c2ccccc12` gave an Activity of 16.2%.

The term IC50 denotes the point on the concentration scale where inhibition reaches its midpoint.
